The results in this text go back to US20130096054A1, “LATENT HUMAN IMMUNODEFICIENCY VIRUS REACTIVIATION” (priority 2010, published 2013).

In series [1] the test system is latently HIV-1 infected CA5 T cells. Conditions: for priming effect on HIV-1 reactivation by sub-optimal dose of HRF: pretreatment with increasing concentrations, then sub-optimal HRF. As for the experimental part: CA5 T cells were pretreated with increasing concentrations of dactinomycin (DM) (FIG. 11A), the DNA intercalator daunorubicin (DR) (FIG. 11B), or the transcription inhibitors DRB (FIG. 11 C) and α-amanitin (FIG. 11D) (concentrations indicated). The cells were then left unstimulated (white circles) or activated with a sub-optimal concentration of HRF (black circles). Reactivation levels were determined as the percentage of GFP-positive cells 24 hours after stimulation. Viability of the cells correlates with the size of the symbol (size range adjusted to 5-95%).
Infection levels in the cell cultures were monitored by flow cytometric analysis of EGFP expression. Flow cytometric analysis was performed on a GUAVA EasyCyte (Millipore; Billerica, Mass.), or a LSRII (Becton & Dickinson; Franklin Lakes, N.J.).
Bacteria from various sources were isolated on TSA II agar plates containing 5% sheep blood. Bacterial isolates were then grown in RPMI 1640 medium supplemented with 10% FBS. After two days of incubation at 37° C. bacteria were pelleted and resuspended in RPMI medium to an optical density (OD600) of 8, aliquoted and frozen at −80° C. Unless otherwise indicated, Massilia timonae was grown in RPMI 1640 medium supplemented with 10% FBS. Typically, medium was inoculated with Massilia timonae from frozen stocks to an OD600 of 0.01. After 48 hours at 37° C., the culture was centrifuged at 3200 g to separate bacteria from the culture medium. Bacteria were resuspended in fresh medium to an OD600 of 8 and frozen to be used as references and stock cultures. The supernatant was then centrifuged at 10,000 g for 20 minutes and sterilized by passage through an 0.2 μm PVDF filter with low protein binding ability. HRF activity was determined by its ability to reactivate latent HIV-1 infection in CA5 cells. Only supernatants of which 6 μl reactivated infection in at least 60% of CA5 cells were used to study HRF properties.
(§1) Infection levels in the cell cultures were monitored by flow cytometric (FCM) analysis of GFP expression. FCM analysis was performed on a GUAVA EasyCyte (GUAVA Technologies, Inc.; Millipore; Billerica, Mass.) and a BD FACSCalibur or a LSR11 (Becton & Dickinson; Franklin Lakes, N.J.). Cell sorting experiments were performed using a FACSAria™ Flow Cytometer (Becton&Dickinson). Data analysis was performed using either CellQuest (Becton&Dickinson) or GUAVA Express (GUAVA Technologies, Inc.).
To identify the optimal concentration of dactinomycin, CA5 T cells were pretreated with increasing concentrations of dactinomycin (0.0001 and 1 μg/ml), and then left untreated or stimulated with a sub-optimal concentration of HRF or TNF-α. […] Twenty four hours after activator addition, levels of HIV-1 reactivation were determined as the percentage of GFP-positive cells using flow cytometric analysis, which allowed for the simultaneous determination of cell viability.

The subject of series [2] is latently HIV-1 infected J89GFP T cells. Nature of the series: HIV-1 reactivation in latently HIV-1 infected J89GFP T cells (flow cytometry / HTS). Type of series: cell-based. Particulars: 10 ng/ml PMA, three J89GFP populations. On the procedure: as §1
Series [3] relates to latently HIV-2 infected J2574 reporter T cells (HIV-2 7312A). Put plainly: Reactivation of latent HIV-2 infection in J2574 reporter T cells. The class given is cell-based. Conditions: GFP-negative sorted population.
Description: J2574 reporter T cells were infected with HIV-2 7312A and a latently infected cell population was established (>90% latently infected cells). The cell population was then pretreated with varying concentrations of dactinomycin (0-8 ng/ml) for 18 hours and then either left untreated (C) or stimulated with a sub-optimal dose of HRF, which by itself triggered reactivation in 10% of the cells. Reactivation levels were determined 24 hours post HRF activation by quantifying the level of GFP-positive cells using flow cytometric analysis.
J2574 reporter T cells were generated by retrovirally transducing Jurkat T cells with a HIV-1 reporter construct (p2574) in which the HIV-1 LTR controls the expression of GFP. The HIV-1 LTR and the GFP gene are separated by a 2,500 base pair (bp) spacer element. Lentiviral particles were produced by transfecting 293T cells with p2574 and supplying gag-pol-rev-tat in trans. VSV-G was used as viral envelope protein. Following lentiviral transduction of Jurkat cells, all cells that spontaneously expressed GFP were removed by cell sorting. The GFP-negative population was then activated with PMA to identify all cells that would harbor an inducible LTR-GFP-LTR integration event. Cells that turned GFP-positive following stimulation were again selected by cell sorting. GFP expression in this population ceased after a few days leaving a population of GFP-negative reporter cells. The amount of founder cells for this population is calculated to represent >50,000 individual integration events.
To determine the ability of dactinomycin to prime a latent HIV-2 infection, a latently HIV-2 infected population of GFP reporter T cells were tested. Briefly, to create the latent HIV-2 infected population, J2574 reporter cells were infected with HIV-2 7312A and a population of latently HIV-2 infected cells was generated by removing the actively infected, GFP-positive cells using a fluorescence activated cell sorter.
The subject of series [4] is HIV-1 LTR (integrated LTR-EGFP construct, NOMI cells). Nature of the series: Tat-independent activation of integrated LTR-GFP construct in NOMI reporter T cells. Type of series: cell-based. Particulars: 24 hours. As for the experimental part:
(§2) FIGS. 6A-6C show HRF triggers suboptimal functional induction of NF-κB dependent gene expression. […] The HIV-1 reactivating kinetics were determined by stimulating CA5 T cells with optimal concentrations of HRF, phorbol 12-myristate 13-acetate (PMA) and tumor necrosis factor-α (TNF-α) and analyzing HIV-1 reactivation as a function of EGFP-expression over a period of 48 hours. Data for all agents are depicted as the percentage of EGFP-positive cells in the total cell population. […] To test the ability of HRF to mediate Tat-independent activation of the HIV-1 LTR, NOMI cells (HIV-1 reporter cell line with an integrated LTR-EGFP construct) were stimulated with increasing concentrations of PMA (0.01-10 ng/ml), TNF-α (0.003-30 μg/ml) and HRF supernatant (0.3-100 μl). The level of LTR-induction was then measured as EGFP-expression detectable after 24 hours as determined by flow cytometric analysis. Arrows indicate the concentrations at which the respective stimulus would have triggered full HIV-1 reactivation in the latently HIV-1 infected CA5 T cell line. […] 293T cells were transfected with several NF-κB dependent promoter constructs and then stimulated with either TNF-α (10 μg/ml) or HRF (25 μl). Promoter induction was measured as total EGFP expression. […]

Series [5] deals with chronically actively infected T cell lines JNLG#35 and JNLG#44. Put plainly: Active HIV-1 transcription in chronically actively infected GFP-reporter T cells (GFP MCF). The class given is cell-based. Conditions: 48 hours after addition. As for the experimental part:
Changes in HIV-1 transcription levels were determined after 48 hours by measuring GFP mean channel fluorescence intensity (GFP MCF). GFP MCF was plotted over the drug concentration for dactinomycin (FIG. 12A), the DNA intercalators daunorubicin (DM) (FIG. 12B) and rebeccamycin (RM) (FIG. 12C), as well as the transcription inhibitors ICRF-193 (FIG. 12D), DRB (FIG. 12E) and α-amanitin (FIG. 12F). The size of symbols indicates the respective cell viability in the sample (size range adjusted to 5-95%).
For this purpose, each of the compounds was titrated over a relevant range of concentrations on two chronically actively infected T cell lines (JNLG#35 and JNLG#44). These clonal cell lines are infected with a GFP-reporter virus. Forty eight hours after addition of the compounds, the effect of each compound on HIV-1 transcription was determined by flow cytometric analysis quantifying GFP mean channel fluorescence intensity (MCF).

For series [6], the system named is NF-κB dependent promoters in 293T cells. Nature of the series: NF-κB dependent promoter GFP constructs transfected into 293T cells. The class given is cell-based. As for the experimental part: as §2

Where two headings read alike, the source gives them in different places. Where a SMILES comes first, the peptide text is derived from it. The star is where a group is joined. Cbz = O=C(OCc1ccccc1)*

In the case of `CC[C@H](C)[C@@H]1NC(=O)CNC(=O)[C@@H]2Cc3c([nH]c4cc(O)ccc34)[S+]([O-])C[C@@H](NC(=O)CNC1=O)C(=O)N[C@@H](CC(N)=O)C(=O)N1C[C@H](O)C[C@H]1C(=O)N[C@@H]([C@@H](C)[C@@H](O)CO)C(=O)N2` (stereo in doubt) [α-amanitin], in series [1], the “cytotoxicity at higher concentrations” value is “high levels of cytotoxicity”, the “effect of higher concentrations on HIV-1 reactivation triggered by HRF or TNF-α” value is given as “inhibit HIV-1 reactivation” and the “priming effect on HIV-1 reactivation by sub-optimal dose of HRF” value (“priming effect on HIV-1 reactivation” below) is recorded as “None of the inhibitors exerted a priming effect”. For the same molecule, in series [1] (listed as α-aminitin), the “priming effect on HIV-1 reactivation” value is listed as “did not exhibit any priming effect”.
Take `OC[C@H]1O[C@@H](n2cnc3cc(Cl)c(Cl)cc32)[C@H](O)[C@@H]1O` [DRB, 5,6 dichloro-beta-D-ribofuranosylbenzimidazole]: in series [1], the “cytotoxicity at higher concentrations” value is reported as “high levels of cytotoxicity” and the “effect of higher concentrations on HIV-1 reactivation triggered by HRF or TNF-α” value is “inhibit HIV-1 reactivation”.
Regarding `CC(=O)NCCCCCCNC(C)=O` [HMBA, Hexamethylene bisacetamide], the reactivation levels in series [1] (HMBA alone, compared to TNF-α, PMA or HRF) is given as under 40%. In addition, the “cells with reactivated HIV-1” value in series [1] (HMBA at 3 mM) was determined as 15%; in series [1] (HMBA at 9 mM) it was 35%. In series [1] (HMBA at 9 mM), the compound toxicity result is “onset of compound toxicity”. Besides, the reactivation was determined as 81% in series [1] (combination of HMBA and TNF-α); 27% in series [1] (optimal dose of HMBA alone). Moreover, in series [1] (sub-toxic concentrations), the “priming of latent HIV-1 infection for reactivation by sub-optimal TNF-α” value is recorded as “relatively potent at priming latent HIV-1 infection for full reactivation”. Further, the “optimal concentration as HIV-1 priming agent, prior to onset of drug mediated toxicities” value in series [1] (titration on CA5 T cells) was 3 to 10 mM.
For `CC(C)C[C@@H](C=O)NC(=O)[C@H](CC(C)C)NC(=O)[C@H](CC(C)C)NC(=O)OCc1ccccc1` [MG132] (Cbz-Leu-Leu-Leu-aldehyde), the “priming effect on HIV-1 reactivation” value in series [1] is recorded as “did not exhibit any priming effect”.
As to `CCCCCCCCCCCCCC(=O)O[C@@H]1[C@@H](C)[C@@]2(O)[C@@H](C=C(CO)C[C@]3(O)C(=O)C(C)=C[C@@H]23)[C@@H]2C(C)(C)[C@]12OC(C)=O` [PMA, 13-phorbol-12-myristate acetate], the “maximum achievable HIV-1 reactivation levels” value in series [2] amounted to 90±3%. The “cells latently infected as revealed by PMA stimulation” value in series [3] is listed as over 90%. The “Tat-independent activation of integrated LTR-GFP construct (GFP expression)” value in series [4] is recorded as “stimulated Tat-independent activation of the integrated LTR-GFP construct”.
Turning to `CC[C@@]1(O)C[C@H](O[C@H]2C[C@H](N(C)C)[C@H](O[C@H]3C[C@H](O)[C@H](O[C@H]4CCC(=O)[C@H](C)O4)[C@H](C)O3)[C@H](C)O2)c2c(cc3c(c2O)C(=O)c2c(O)cccc2C3=O)[C@H]1C(=O)OC` [aclacinomycin], the “priming effect on HIV-1 reactivation” value in series [1] was “strong priming effect”.
Regarding `CC[C@@]1(O)C(=O)OCc2c1cc1n(c2=O)Cc2cc3ccccc3nc2-1` [camptothecin], the “priming effect on HIV-1 reactivation” value in series [1] is reported as “None of the inhibitors exerted a priming effect”.
Consider `COc1cccc2c1C(=O)c1c(O)c3c(c(O)c1C2=O)C[C@@](O)(C(C)=O)C[C@@H]3O[C@H]1C[C@H](N)[C@H](O)[C@H](C)O1` [daunorubicin], for which the “effect on active HIV-1 infection / transcription (GFP MCF)” value in series [5] is on record as “boosted active HIV-1 transcription”.
Turning to `O=C1[O][Pt]2([NH][C@@H]3CCCC[C@H]3[NH]2)[O]C1=O` [oxaliplatin], the “priming effect on HIV-1 reactivation” value in series [1] is on record as “not reproduced”.
Consider `CO[C@H]1[C@H](O)[C@@H](O)[C@H](n2c3c(Cl)cccc3c3c4c(c5c6cccc(Cl)c6[nH]c5c32)C(=O)NC4=O)O[C@@H]1CO` [rebeccamycin], for which the “priming effect on HIV-1 reactivation” value in series [1] is recorded as “not reproduced”. Besides, in series [5], the “effect on active HIV-1 infection / transcription (GFP MCF)” value is recorded as “boosted active HIV-1 transcription”.
For the molecule TNF-α, the reactivation in series [1] (sub-optimal dose of TNF-α alone) was found to be 32%. Besides, in series [6] (TNF-α 10 μg/ml or HRF 25 μl), the “GFP expression driven by NF-κB responsive promoter constructs (IL-8, TNF-α, HIV-1 LTR, three consensus NF-κB sites)” value is reported as “efficiently induced”. For the same molecule, the “GFP expression of construct under murine stem cell virus LTR (no NF-κB responsive element)” value in series [6] (control construct) is given as “Neither TNF-α nor HRF influenced GFP expression”. For the same molecule, in series [4], the “Tat-independent activation of integrated LTR-GFP construct (GFP expression)” value is reported as “stimulated Tat-independent activation of the integrated LTR-GFP construct”.
